Here are results for 6 compounds from US20080312287A1, “Compound and Methods For the Treatment of Cancer and Malaria” (University of Washington, priority 2005, published 2008).

The target in data set [1] is T1, PfPFT (Plasmodium falciparum, UniProt Q8I503+Q8IHP6).
T1 sequence (Q8I503 1-521): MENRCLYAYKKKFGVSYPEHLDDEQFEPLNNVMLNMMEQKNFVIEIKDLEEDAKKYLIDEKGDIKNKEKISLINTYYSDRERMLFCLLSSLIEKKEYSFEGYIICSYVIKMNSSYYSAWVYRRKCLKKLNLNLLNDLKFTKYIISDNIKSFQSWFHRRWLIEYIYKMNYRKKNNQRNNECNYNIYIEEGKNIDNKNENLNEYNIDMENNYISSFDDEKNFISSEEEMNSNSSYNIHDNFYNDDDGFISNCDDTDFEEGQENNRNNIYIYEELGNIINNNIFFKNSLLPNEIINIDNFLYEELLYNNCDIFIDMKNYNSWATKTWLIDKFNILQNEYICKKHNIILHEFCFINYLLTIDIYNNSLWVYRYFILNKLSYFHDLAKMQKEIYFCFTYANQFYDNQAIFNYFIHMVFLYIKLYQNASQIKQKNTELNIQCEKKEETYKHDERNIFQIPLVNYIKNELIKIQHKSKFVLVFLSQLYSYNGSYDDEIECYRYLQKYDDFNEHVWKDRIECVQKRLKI
T1 sequence (Q8IHP6 1-923): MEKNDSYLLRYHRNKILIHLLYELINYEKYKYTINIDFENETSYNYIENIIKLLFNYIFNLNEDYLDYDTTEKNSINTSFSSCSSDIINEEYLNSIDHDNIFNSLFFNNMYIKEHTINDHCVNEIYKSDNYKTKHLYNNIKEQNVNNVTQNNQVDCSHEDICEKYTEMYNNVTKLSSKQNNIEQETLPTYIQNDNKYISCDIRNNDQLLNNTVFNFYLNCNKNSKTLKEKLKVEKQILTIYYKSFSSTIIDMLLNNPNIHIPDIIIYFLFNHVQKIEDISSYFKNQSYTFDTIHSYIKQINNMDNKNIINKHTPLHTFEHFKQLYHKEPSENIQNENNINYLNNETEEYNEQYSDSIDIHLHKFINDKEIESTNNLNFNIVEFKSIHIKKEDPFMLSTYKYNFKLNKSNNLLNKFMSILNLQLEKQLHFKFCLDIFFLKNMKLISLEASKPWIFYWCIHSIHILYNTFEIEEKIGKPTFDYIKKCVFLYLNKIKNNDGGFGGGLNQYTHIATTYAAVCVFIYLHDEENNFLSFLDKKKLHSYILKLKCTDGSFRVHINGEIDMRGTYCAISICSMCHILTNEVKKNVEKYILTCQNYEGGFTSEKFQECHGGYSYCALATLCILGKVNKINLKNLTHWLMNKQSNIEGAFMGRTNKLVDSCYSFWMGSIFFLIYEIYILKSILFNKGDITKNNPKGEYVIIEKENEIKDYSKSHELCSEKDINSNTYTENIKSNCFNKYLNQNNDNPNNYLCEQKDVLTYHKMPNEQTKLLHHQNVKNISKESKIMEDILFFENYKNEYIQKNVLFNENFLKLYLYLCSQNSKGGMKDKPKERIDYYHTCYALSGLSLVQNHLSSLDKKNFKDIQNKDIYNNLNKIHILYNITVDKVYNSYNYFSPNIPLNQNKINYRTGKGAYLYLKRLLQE
The data set can be described thus: PfPFT inhibition, scintillation proximity assay with partially purified PfPFT. Type of data set: biochemical. Conditions: for Selectivity: ratio of rat to Plasmodium PFT activity; for inhibition at 0.005 µM: read-out: % Inhibition of PfPFT at 5 nM, inhibitor at 5 nM; for inhibition at 0.05 µM: read-out: % Inhibition of PfPFT at 50 nM, inhibitor at 50 nM; for IC50: concentration decreasing transferase activity twofold. A general note: SPA uses beads or plates that emit light when radiolabelled molecules are held near them.

Data set [2] can be described thus: Liver microsome metabolism (mouse). To be noted: female. In general terms: Microsomes from liver hold many membrane-bound enzymes, among them those of drug oxidation.
Experimental: (§2) Microsome metabolism. Liver microsome metabolism assays were performed with female pooled microsomes from BD Biosciences (20 mg/mL). Reaction wells containing: phosphate buffer (232 μL, 0.6 M), MgCl2 (12.0 μL, 0.1 M), EDTA (0.8 μL, 0.5 M), 10x NADPH regenerating system (40.0 μL), Glucoide-6-phosphate deghydrogenase (0.8 μL, 500 U/mL), milliq water (267.8 μL), and liver microsomes (10.0 μL, 20 mg/mL) were heated at 37° C. for 10 mins. To each reaction well was added inhibitor (200 μM, 2.0 μL) in DMSO. Reaction vessels were quenched with acetonitrile (75 μL) and internal standard at designated time points, and the sample immediately frozen (−20° C.). Metabolites and unreacted inhibitor were quantified by mass spectral analysis.
For data set [3], the system named is P. falciparum 3D7. The data set can be described thus: P. falciparum ED50 determination, [3H]-hypoxanthine incorporation, strain 3D7. Type of data set: cell-based, Plasmodium falciparum. To be noted: Plasmodium falciparum, 3D7, strain 3D7; concentration decreasing hypoxanthine incorporation into parasites twofold; read-out: ED50 3D7. An outline of the steps:
(§1)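 Cultures at 0.5% parasitemia and 0.5% hematocrit, in RPMI with 20% human A+ plasma, were exposed to compound for 48 h at 37° C under 5% CO2/5% O2. [3H]-hypoxanthine was then added for 24 h more. Incorporation, corrected for uninfected erythrocytes and normalised to DMSO wells, gave ED50 by linear regression.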

Data set [4] deals with P. falciparum K1. The data set can be described thus: P. falciparum ED50 determination, [3H]-hypoxanthine incorporation, strain K1. The data set is classed as cell-based, Plasmodium falciparum. To be noted: concentration decreasing hypoxanthine incorporation into parasites twofold, read-out: ED50 K1. An outline of the steps:
as §1

Data set [5] deals with Rat FTase (Rattus norvegicus, UniProt Q02293+Q04631). The experiment in a line: Rat farnesyltransferase IC50 determination. To be noted: concentration decreasing transferase activity twofold. The data set is classed as biochemical.
The nature of data set [6]: Oral availability in mice, inhibitor concentration in plasma. The data set is classed as in vivo.
Data set [7] in a line: Liver microsome metabolism (rat). To be noted: female, microsomes.
Experimental: as §2
The nature of data set [8]: Oral availability in rats, inhibitor concentration in plasma. The data set is classed as in vivo. Conditions: rat.
The test system of data set [9] is Caco-2 cells. The data set can be described thus: Caco-2 apparent permeability. To be noted: apparent permeability coefficient. The source says: Absorption. Caco-2 cells cultured on a semi-permeable membrane form a highly functionalized epithelial barrier, with remarkable similarity to small intestinal epithelial cells, including high levels of brush border hydrolases and well developed junctional complexes.
In general terms: Caco-2 monolayers are a common model of the intestinal barrier.

Setting [10] is: Plasmodium falciparum, K1, strain K1.

SMILES strings stand for the structures. Read-outs that look alike come from different tables or passages of the source. Marks after values point to notes of the source that are not given here.

In the case of `Cn1cnc(S(=O)(=O)N(CCN(Cc2cncn2C)c2ccc(C#N)cc2)Cc2ccc(-c3ccccc3)cc2)c1` [Compound 8ag, 1-Methyl-1H-imidazole-4-sulfonic acid biphenyl-4-ylmethyl-{2-[(4-cyano-phenyl)-(3-methyl-3H-imidazol-4-ylmethyl)-amino]-ethyl}-amide], in [1], the Selectivity was determined as 3.7, the inhibition (usually the share of the control response that was lost under treatment) at 0.005 µM was found to be 10% and the inhibition at 0.05 µM was 19%. In data set [2] (liver microsomes, Microsome t1/2, Mouse, mouse liver microsomes), this compound returned a half-life at 0.71 µM of less than 4 min. Also, the EC50 in data set [3] worked out at 700 nM. Besides, the EC50 in [4] (setting [10]) came out at 2500 nM. Besides, in data set [5], the IC50 (in general, the concentration that gives 50% inhibition) was 880 nM.

Turning to `Cn1cnc(S(=O)(=O)N(CCN(Cc2cncn2C)c2ccc(C#N)cc2)Cc2ccccc2)c1` [Compound 8d, 1-Methyl-1H-imidazole-4-sulfonic acid benzyl-{2-[(4-cyano-phenyl)-(3-methyl-3H-imidazol-4-ylmethyl)-amino]-ethyl}-amide], the inhibition at 0.005 µM in data set [1] worked out at 86%. Also, the inhibition at 0.05 µM in data set [1] is 98%. The figures for the half-life at 0.71 µM in [2] (microsomes) and in [7] were 9 min and 18 min, respectively. For the same compound, the values for the EC50 in data set [3], in data set [4] (setting [10]) and in data set [4] (strain K1) were 349 nM, 375 nM and 367 nM, respectively. The “Oral Availability in Mice AUC” value in [6] (mouse, in vivo, po, 1 mg) was 112.0 µM·min. For the same compound, the “Oral Availability in Mice t1/2” value in data set [6] (oral gavage, mice 1 mg, elimination half life) was found to be 95.9 min. Also, in [5], 25 nM corresponded to half-maximal inhibition (IC50). The half-life in [8] (plasma, 12.5 mg, oral gavage, rats, elimination half life, read-out: Oral Availability t1/2 (rats)) is 96 min. For the same compound, the Tmax (in general, the time at which the peak concentration occurs) in data set [8] (plasma, oral administration to rats 12.5 mg) was 30 min. For the same compound, the Cmax (commonly the peak of the concentration-time curve) in data set [8] (plasma, oral gavage, rats 12.5 mg in 90% saline, 3% ethanol, 7% tween) is 740 nM.

Regarding `Cn1cncc1CN(CCN(Cc1ccccc1)S(=O)(=O)c1ccccn1)c1ccc(C#N)cc1` [Compound 8g, Pyridine-2-sulfonic acid benzyl-{2-[(4-cyano-phenyl)-(3-methyl-3H-imidazol-4-ylmethyl)-amino]-ethyl}-amide], in data set [1], the IC50 was 2.8 nM, the inhibition at 0.005 µM amounted to 64% and the inhibition at 0.05 µM was 95%. Moreover, the EC50 in [3] came to 570 nM. Further, the Tmax in data set [6] (mouse, in vivo, po) is 30 min. In data set [4] (setting [10]), the EC50 turned out to be 2300 nM.

With `Cn1cnc(S(=O)(=O)N(CCN(Cc2cncn2C)c2ccc(C#N)cc2)CC2CCCCC2)c1` [Compound 8q, 1-Methyl-1H-imidazole-4-sulfonic acid {2-[(4-cyano-phenyl)-(3-methyl-3H-imidazol-4-ylmethyl)-amino]-ethyl}-cyclohexylmethyl-amide], in data set [1], the Selectivity is recorded as 1.7, the inhibition at 0.005 µM stood at 63% and the inhibition at 0.05 µM amounted to 93%. The half-life at 0.71 µM in data set [2] (microsomes) is less than 5 min. Also, the EC50 in [3] was 220 nM. For the same compound, the EC50 in data set [4] (setting [10]) is 850 nM. For the same compound, in data set [7], the half-life at 0.71 µM was 4 min. The IC50 in data set [5] amounted to 7.5 nM. Besides, the CaCo in data set [9] is recorded as 1.5 cm · s^−1 × 10^−6.

In the case of `Cn1cnc(S(=O)(=O)N(CCN(Cc2cncn2C)c2ccc(C#N)cc2)CC2CCN(C(=O)OC(C)(C)C)CC2)c1` [Compound 8v, 4-{[{2-[(4-Cyano-phenyl)-(3-methyl-3H-imidazol-4-ylmethyl)-amino]-ethyl}-(1-methyl-1H-imidazole-4-sulfonyl)-amino]-methyl}-piperidine-1-carboxylic acid tert-butyl ester], in [1], the IC50 was 1.2 nM, the inhibition at 0.005 µM is 81% and the inhibition at 0.05 µM was determined as 96%. Besides, the EC50 in [3] was 88 nM. In addition, the Tmax in [6] (mouse, in vivo, po) is no more than 40 min. Besides, in data set [4] (setting [10]), the EC50 was found to be 54 nM.

`Cc1ccccc1CN(CCN(Cc1cncn1C)c1ccc(C#N)cc1)S(=O)(=O)c1cn(C)cn1` [Compound 8x, 1-Methyl-1H-imidazole-4-sulfonic acid {2-[(4-cyano-phenyl)-(3-methyl-3H-imidazol-4-ylmethyl)-amino]-ethyl}-(2-methyl-benzyl)-amide]: in data set [1], the inhibition at 0.005 µM was determined as 95% and the inhibition at 0.05 µM amounted to 99%. Moreover, in data set [3], the EC50 turned out to be 93 nM. In addition, in data set [6] (mouse, in vivo, po), the Tmax worked out at 40 min. In data set [6] (mouse, in vivo, po, 1 mg), this compound came in with a Cmax of 1050 nM. Further, in data set [4] (setting [10]), the EC50 turned out to be 150 nM. This compound gave an IC50 in data set [5] of 15.5 nM. Further, in data set [8] (in vivo, po), the “Oral Availability AUC (^d, rats)” value is given as 103^d μM · min.
